{"source": "paper PMC4335020", "about": "“Single Oral Dose Pharmacokinetics of Decursin and Decursinol Angelate in Healthy Adult Men and Women” (PLoS ONE, 2015)", "assay": "Single oral dose human plasma pharmacokinetics of D, DA and DOH after Cogni.Q", "format": "in vivo", "source_text": "Ten healthy male and 10 female subjects were recruited by public announcement in Amarillo, TX, from January 2013 to April 2013 (see Fig. 1 CONSORT diagram). The sample size for each gender was chosen without power calculation due to the lack of prior knowledge of PK parameter variance in humans. After receiving informed consent verbally and in writing, the health status of each candidate was confirmed by health questionnaire, plasma biochemistry (hepatic and renal functions), complete blood cell count (CBC), and a physical examination by a participating academic physician. Subjects with diabetes, or pregnant, perinatal and breastfeeding women were excluded. For the 48 hours preceding study visit until the final blood draw, all subjects were instructed to avoid taking any prescription or nonprescription drugs, vitamins, and herbal/dietary supplements. Each subject was compensated for participating in the study per TTUHSC IRB approved rate.\nEligible subjects arrived at our clinical facility at 0700 (7:00 am) on the test day after a fast beginning at 2200 (10:00 pm) the previous night. After a brief review of vital signs, the nurse placed an intravenous (IV) line with saline drip in one arm of each subject. A baseline pre-dose (hour 0) blood sample was drawn through the IV line; after that subjects swallowed four Cogni.Q vegicaps with 240 mL of water at hour 0 under direct supervision. Subjects stayed at the clinical facility in their room for the next 12 hours, returning at 24 and 48 hours. Blood was drawn at baseline (hour 0) and at 0.5, 1, 2, 3, 4, 6, 8, 12, 24 and 48 hours after dosing into Vacutainer Blood Collection Tube (Becton-Dickinson, Franklin Lakes, NJ. Product Number: 367874, Sodium heparin was used as anti-coagulant). Water was allowed as desired except for within the first hour after Cogni.Q consumption. All subjects received standardized meals at post-dose hours 4.5 and 9.5 but no food was allowed for at least the first 4 hours post-dose.\nPlasma was prepared by centrifuging the heparinized blood at 1000 g for 15 minutes at room temperature. Urine samples (40mL) were collected within time spans of 0–4, 4–8, 8–12 and 12–24 hours (total volume of urine was recorded). All plasma and urine samples were put on dry ice immediately and then stored at -80°C freezer until analysis.\nPlasma samples were extracted with a validated solid supported liquid extraction (SLE) method facilitated with a positive pressure manifold (Biotage, Charlotte, NC). Briefly, 100 μL of plasma sample was spiked with 5 μL of 10 ng/μL prednisolone (IS), diluted with 200 μL of LC-MS grade water, mixed and loaded onto ISOLUTE SLE+ 400 μL Array Well cartridges (Biotage, Charlotte, NC). A pulse of minimum positive pressure was applied to facilitate the samples absorption into the cartridges. After the samples were allowed to absorb for 5 min, the compounds were eluted with 2×500 μL tert-butyl methyl ether. The eluent was dried in a Speedvac and the resulting residue was reconstituted in 50 μL of methanol for UHPLC-MS/MS analysis.\nEight-point calibration curves were constructed for D, DA and DOH, at concentrations of 0.1, 0.5, 1, 5, 10, 20, 50 and 100 μg/L for D and DA, and at concentrations of 1, 5, 10, 50, 100, 200, 500 and 1000 μg/L for DOH, respectively. The linear range was 0.1–100 μg/L (0.3–300 nmol/L), 0.1–100 μg/L (0.3–300 nmol/L) and 1–1000 μg/L (4–4000 nmol/L) for D, DA and DOH, respectively. The inter- and intra-assay CV were lower than 6.5% and the accuracy was between 90–105%. Calibration curve was run for each batch of samples analyzed. The mean calibration curve correlation coefficient (r) for D, DA and DOH was 0.999, 0.999 and 0.998, respectively (data from 7–10 calibration curves). In addition, 70% of the plasma samples were extracted and analyzed twice, the data from two replicate analyses were nearly identical and combined for final data analyses and presentation. […]", "note": "Where two headings read alike, the source gives them in different places.", "data": [{"smiles": "CC(C)=CC(=O)O[C@H]1Cc2cc3ccc(=O)oc3cc2OC1(C)C", "note": "[D, decursin]", "values": [{"measurement": "Cmax", "setting": "both sexes, human, plasma, oral, 4 Cogni.Q vegicaps, n=20 (S1 Table), read-out: Cmax, nM, Grand Mean", "value": 5.3, "unit": "nM"}, {"measurement": "Tmax", "setting": "both sexes, human, plasma, oral, 4 Cogni.Q vegicaps, n=20 (S1 Table), read-out: Tmax, h, Grand Mean", "value": 2.1, "unit": "h"}, {"measurement": "half-life", "setting": "both sexes, human, plasma, oral, all subjects, outliers excluded (S1 Table), read-out: Terminal t1/2, h, Grand Mean (converted)", "value": 17.4, "unit": "h"}, {"measurement": "AUC(0-t)", "setting": "both sexes, human, plasma, oral, n=20 (S1 Table), read-out: AUC0-48h, Grand Mean", "value": 37.1, "unit": "nmol·h/L"}, {"measurement": "AUC(0-t)", "setting": "both sexes, human, plasma, po, all human subjects n = 20, single oral dose Cogni.Q, plasma (Table 2), read-out: AUC0–48h, nmol/L, Mean (SD)", "value": 37.1, "unit": "nmol·h/L"}, {"measurement": "AUC(0-t)", "setting": "both sexes, human, twenty healthy subjects, single oral dose Cogni.Q, plasma (abstract), read-out: mean area under the curve (AUC0-48h)", "value": 37, "unit": "nmol·h/L"}, {"measurement": "Tmax", "setting": "both sexes, all human subjects n = 20, single oral dose 4 Cogni.Q vegicaps (119 mg D, 77 mg DA), plasma, read-out: Tmax, h, Mean (SD)", "value": 2.1, "unit": "h"}, {"measurement": "half-life", "setting": "both sexes, all human subjects, four outlier subjects excluded, single oral dose Cogni.Q, plasma, read-out: Terminal t1/2, h, Mean (SD) (converted)", "value": 17.4, "unit": "h"}, {"measurement": "AUC(0-t)", "setting": "female, human, plasma, oral, 4 Cogni.Q vegicaps, Women n=10 (S1 Table), read-out: AUC0-48h, Mean, F", "value": 45.7, "unit": "nmol·h/L"}, {"measurement": "Cmax", "setting": "female, human, plasma, oral, 4 Cogni.Q vegicaps, Women n=10 (S1 Table), read-out: Cmax, nM, Mean, F", "value": 5.37, "unit": "nM"}, {"measurement": "Tmax", "setting": "female, human, plasma, oral, Women n=10 (S1 Table), read-out: Tmax, h, Mean, F", "value": 2.4, "unit": "h"}, {"measurement": "half-life", "setting": "female, human, plasma, oral, Women, outliers excluded (S1 Table), read-out: Terminal t1/2, h, Mean, F (converted)", "value": 17, "unit": "h"}, {"measurement": "AUC(0-t)", "setting": "female, human, plasma, po, Women N = 10, single oral dose Cogni.Q, plasma, read-out: AUC0–48h, h.nmol/L Mean (SD)", "value": 45.7, "unit": "nmol·h/L"}, {"measurement": "Cmax", "setting": "female, human, plasma, po, Women N = 10, single oral dose Cogni.Q, plasma, read-out: Cmax, nmol/L, Mean (SD)", "value": 5.4, "unit": "nM"}, {"measurement": "Tmax", "setting": "female, human, plasma, po, Women N = 10, single oral dose Cogni.Q, plasma, read-out: Tmax, h, Mean (SD)", "value": 2.4, "unit": "h"}, {"measurement": "half-life", "setting": "female, human, plasma, po, Women, outlier subjects excluded, single oral dose Cogni.Q, plasma, read-out: T1/2, h, terminal Mean (SD) (converted)", "value": 17, "unit": "h"}, {"measurement": "half-life", "setting": "human, plasma, oral, 4 Cogni.Q vegicaps, subject S1 (115 lb), outlier, excluded from means, read-out: Terminal t1/2, h (converted)", "value": 173, "unit": "h"}, {"measurement": "AUC(0-t)", "setting": "human, plasma, oral, 4 Cogni.Q vegicaps, subject S1 (115 lb), read-out: AUC0-48h", "value": 45, "unit": "nmol·h/L"}, {"measurement": "Cmax", "setting": "human, plasma, oral, 4 Cogni.Q vegicaps, subject S1 (115 lb), read-out: Cmax", "value": 4.7, "unit": "nM"}, {"measurement": "Tmax", "setting": "human, plasma, oral, 4 Cogni.Q vegicaps, subject S1 (115 lb), read-out: Tmax", "value": 1, "unit": "h"}, {"measurement": "AUC(0-t)", "setting": "human, plasma, oral, 4 Cogni.Q vegicaps, subject S2 (194 lb), read-out: AUC0-48h", "value": 14.8, "unit": "nmol·h/L"}, {"measurement": "Cmax", "setting": "human, plasma, oral, 4 Cogni.Q vegicaps, subject S2 (194 lb), read-out: Cmax", "value": 2, "unit": "nM"}, {"measurement": "half-life", "setting": "human, plasma, oral, 4 Cogni.Q vegicaps, subject S2 (194 lb), read-out: Terminal t1/2, h (converted)", "value": 16.9, "unit": "h"}, {"measurement": "Tmax", "setting": "human, plasma, oral, 4 Cogni.Q vegicaps, subject S2 (194 lb), read-out: Tmax", "value": 2, "unit": "h"}, {"measurement": "half-life", "setting": "human, plasma, oral, 4 Cogni.Q vegicaps, subject S3 (170 lb), outlier, excluded from means, read-out: Terminal t1/2, h (converted)", "value": 69.6, "unit": "h"}, {"measurement": "AUC(0-t)", "setting": "human, plasma, oral, 4 Cogni.Q vegicaps, subject S3 (170 lb), read-out: AUC0-48h", "value": 9.8, "unit": "nmol·h/L"}, {"measurement": "Cmax", "setting": "human, plasma, oral, 4 Cogni.Q vegicaps, subject S3 (170 lb), read-out: Cmax", "value": 1.6, "unit": "nM"}, {"measurement": "Tmax", "setting": "human, plasma, oral, 4 Cogni.Q vegicaps, subject S3 (170 lb), read-out: Tmax", "value": 4, "unit": "h"}, {"measurement": "AUC(0-t)", "setting": "human, plasma, oral, 4 Cogni.Q vegicaps, subject S4 (170 lb), read-out: AUC0-48h", "value": 119, "unit": "nmol·h/L"}, {"measurement": "Cmax", "setting": "human, plasma, oral, 4 Cogni.Q vegicaps, subject S4 (170 lb), read-out: Cmax", "value": 13.2, "unit": "nM"}, {"measurement": "half-life", "setting": "human, plasma, oral, 4 Cogni.Q vegicaps, subject S4 (170 lb), read-out: Terminal t1/2, h (converted)", "value": 10.8, "unit": "h"}, {"measurement": "Tmax", "setting": "human, plasma, oral, 4 Cogni.Q vegicaps, subject S4 (170 lb), read-out: Tmax", "value": 2, "unit": "h"}, {"measurement": "AUC(0-t)", "setting": "human, plasma, oral, 4 Cogni.Q vegicaps, subject S5 (161 lb), read-out: AUC0-48h", "value": 34.3, "unit": "nmol·h/L"}, {"measurement": "Cmax", "setting": "human, plasma, oral, 4 Cogni.Q vegicaps, subject S5 (161 lb), read-out: Cmax", "value": 2, "unit": "nM"}, {"measurement": "half-life", "setting": "human, plasma, oral, 4 Cogni.Q vegicaps, subject S5 (161 lb), read-out: Terminal t1/2, h (converted)", "value": 22.8, "unit": "h"}, {"measurement": "Tmax", "setting": "human, plasma, oral, 4 Cogni.Q vegicaps, subject S5 (161 lb), read-out: Tmax", "value": 1, "unit": "h"}, {"measurement": "AUC(0-t)", "setting": "human, plasma, oral, 4 Cogni.Q vegicaps, subject S6 (120 lb), read-out: AUC0-48h", "value": 94, "unit": "nmol·h/L"}, {"measurement": "Cmax", "setting": "human, plasma, oral, 4 Cogni.Q vegicaps, subject S6 (120 lb), read-out: Cmax", "value": 13.4, "unit": "nM"}, {"measurement": "half-life", "setting": "human, plasma, oral, 4 Cogni.Q vegicaps, subject S6 (120 lb), read-out: Terminal t1/2, h (converted)", "value": 12.8, "unit": "h"}, {"measurement": "Tmax", "setting": "human, plasma, oral, 4 Cogni.Q vegicaps, subject S6 (120 lb), read-out: Tmax", "value": 3, "unit": "h"}, {"measurement": "AUC(0-t)", "setting": "human, plasma, oral, 4 Cogni.Q vegicaps, subject S7 (180 lb), read-out: AUC0-48h", "value": 23.3, "unit": "nmol·h/L"}, {"measurement": "Cmax", "setting": "human, plasma, oral, 4 Cogni.Q vegicaps, subject S7 (180 lb), read-out: Cmax", "value": 3.6, "unit": "nM"}, {"measurement": "half-life", "setting": "human, plasma, oral, 4 Cogni.Q vegicaps, subject S7 (180 lb), read-out: Terminal t1/2, h (converted)", "value": 24.7, "unit": "h"}, {"measurement": "Tmax", "setting": "human, plasma, oral, 4 Cogni.Q vegicaps, subject S7 (180 lb), read-out: Tmax", "value": 4, "unit": "h"}, {"measurement": "AUC(0-t)", "setting": "human, plasma, oral, 4 Cogni.Q vegicaps, subject S8 (160 lb), read-out: AUC0-48h", "value": 79.2, "unit": "nmol·h/L"}, {"measurement": "Cmax", "setting": "human, plasma, oral, 4 Cogni.Q vegicaps, subject S8 (160 lb), read-out: Cmax", "value": 9.6, "unit": "nM"}, {"measurement": "half-life", "setting": "human, plasma, oral, 4 Cogni.Q vegicaps, subject S8 (160 lb), read-out: Terminal t1/2, h (converted)", "value": 9.9, "unit": "h"}, {"measurement": "Tmax", "setting": "human, plasma, oral, 4 Cogni.Q vegicaps, subject S8 (160 lb), read-out: Tmax", "value": 3, "unit": "h"}, {"measurement": "AUC(0-t)", "setting": "human, plasma, oral, 4 Cogni.Q vegicaps, subject S9 (158 lb), read-out: AUC0-48h", "value": 20.6, "unit": "nmol·h/L"}, {"measurement": "Cmax", "setting": "human, plasma, oral, 4 Cogni.Q vegicaps, subject S9 (158 lb), read-out: Cmax", "value": 2.4, "unit": "nM"}, {"measurement": "half-life", "setting": "human, plasma, oral, 4 Cogni.Q vegicaps, subject S9 (158 lb), read-out: Terminal t1/2, h (converted)", "value": 24, "unit": "h"}, {"measurement": "Tmax", "setting": "human, plasma, oral, 4 Cogni.Q vegicaps, subject S9 (158 lb), read-out: Tmax", "value": 1, "unit": "h"}]}]}
